GI50 and TGI data for 17 compounds are collected here from PubChem BioAssay (NCI).

Common to all, as to assay: NCI tumour cell line growth inhibition, 48 h
Test [1] relates to HCC-2998 colon.
The subject of test [2] is HCT-15 colon.
Test [3] has as its system HS 578T breast.
Test [4] has as its system HT29 colon.
Test [5] concerns MDA-MB-231 breast.
In test [6] the test system is MOLT-4 leukemia.
The test system of test [7] is OVCAR-4 ovarian.
Test [8] has as its system SK-MEL-2 melanoma.
Test [9] has as its system SK-MEL-28 melanoma.
The test system of test [10] is TK-10 renal.

Several values for one entry are separate records, joined by “and”; a condition that tells them apart may be missing. Equal values may be shown once.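 Following 48 hours of exposure in 96-well plates, responses at five concentrations were used to interpolate endpoints linearly. The concentration for 50% growth inhibition is given as GI50. TGI: concentration producing complete growth inhibition.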 Some results are limits rather than exact numbers.

For `COC(=O)Nc1nc2ccc(C(=O)c3cccc(I)c3)cc2[nH]1`, the GI50 in test [1] is 0.208 µM; in test [2] it was 0.0459 µM; in test [3], 0.0904 µM; in test [4], 0.0375 µM; in [5], 0.166 µM; in test [6], 0.0609 µM. Moreover, the GI50 was 0.818 µM in test [7], 1.26 µM in [8], 1.13 µM in test [9] and 6.37 µM in test [10]. Moreover, the TGI in test [1] is 30.6 µM; in test [2], 13.2 µM; in [3] it was 25.7 µM; in test [4] it was 26 µM; in test [5] it was 5.52 µM; in test [6] it was 10.6 µM. Further, the TGI in test [7] was 15.3 µM; in [8] it was more than 72.3 µM; in test [9], more than 81.2 µM; in test [10], 32.7 µM.

Consider `C[C@@H]1CC[C@@H]2[C@@H]1[C@H](OC(=O)/C=C/C1CCCCC1)[C@]1(C3CCCCC3)C[C@@H](OC(=O)CO)[C@@]2(C)O1`, for which the GI50 is 16 µM in test [1]; 14 µM in [2]; 0.0162 µM in test [3]; 13.1 µM in test [4]; 15.4 µM in [5]; 13.7 µM in test [6]. The GI50 is 13.1 µM in test [7], 15 µM in test [8], 15.1 µM in test [9] and 15.8 µM in [10]. Moreover, the TGI was determined as 29.6 µM in [1]; 26.7 µM in test [2]; 0.0556 µM in test [3]; 26.7 µM in test [4]; 29.6 µM in [5]; 31.3 µM in [6]. The TGI in test [7] came to 26.6 µM; in test [8] it was 28.5 µM; in [9], 29.6 µM; in test [10] it was 29.5 µM.

In the case of `Clc1ccc2c(NC3CCC(N4CCCCC4)CC3)ccnc2c1` (stereo not drawn), the TGI in [1] was 27.4 µM; in test [2], more than 100 µM; in [3], 56.4 µM; in test [4], 40.7 µM; in test [5], 40 µM; in test [6], more than 100 µM. In addition, the TGI came out at 78.6 µM in [7], 33.9 µM in [8], 36.8 µM in test [9] and 48.8 µM in test [10].

As for `c1ccc2c(N=NSc3ncnc4nc[nH]c34)c3ccccc3nc2c1`, the GI50 is 1.49 µM in test [1]; 1.15 µM in test [2]; 2.6 µM in [3]; 0.398 µM in test [4]; 1.24 µM in test [5]; 0.454 µM in test [6]. Further, the GI50 in test [7] was 1.63 µM; in test [8] it was 1.64 µM; in test [9], 1.78 µM; in test [10], 1.77 µM. Besides, the TGI in [1] came out at 3.77 µM; in test [2], 10.2 µM; in test [3], 7.21 µM; in [4], 2.16 µM; in test [5] it was 6.11 µM; in test [6], 4.83 µM. The TGI is 10.5 µM in test [7], 3.61 µM in [8], 3.71 µM in test [9] and 6.37 µM in test [10].

On to `CC(C)(C)NCC(O)c1ccccc1Cl` (stereo not drawn), for which the GI50 in test [1], in test [2], in [3], in [4], in [5] and in [6] was more than 100 µM each time. Besides, the GI50 in test [7], in test [8], in test [9] and in test [10] was more than 100 µM in each case. The TGI in test [1], in test [2], in test [3], in [4], in test [5] and in test [6] was more than 100 µM in each case. Moreover, the TGI in [7], in test [8], in test [9] and in [10] was more than 100 µM each time.

Turning to `CC(C)[C@@H](C(=O)O[C@@H]1/C=C/C(=O)O[C@@H](C)CCC/C=C/[C@@H]2C[C@H](O)C[C@H]21)N(C)C`, the GI50 in test [1] is 20 µM; in test [2] it was 16 µM; in test [3], 6.4 µM; in test [4], 5.16 µM; in [5] it was 20.2 µM; in test [6] it was 15.9 µM. In addition, the GI50 in [7] was 9.09 µM; in test [8], 23.1 µM; in test [9], 6.03 µM; in test [10], 12.4 µM. In addition, the TGI amounted to 55.1 µM in [1]; 32.3 µM in [2]; 50.5 µM in [3]; 27.3 µM in [4]; 63.2 µM in test [5]; 42.8 µM in [6]. The TGI in test [7] is more than 61.9 µM; in test [8], more than 68.3 µM; in [9], 23.5 µM; in test [10], 51.4 µM.

As for `C[C@]12CCC(=O)C=C1C[C@@H](O)[C@@H]1[C@@H]2CC[C@@]2(C)[C@H]1CC[C@]2(C)O`, the TGI in test [1], in test [2], in [3], in test [4], in [5] and in test [7] was more than 100 µM throughout. In addition, the TGI in test [8], in [9] and in test [10] was more than 100 µM each time.

For `CCC[CH2][Sn]1([CH2]CCC)[O]C(=O)c2cccc([N+](=O)[O-])c2C(=O)[O]1`, the GI50 is 1.11 µM in [1]; 0.3 µM in [2]; 0.907 µM in test [3]; 1.31 µM in test [4]; 0.271 µM in [5]; 0.409 µM in [6]. For the same compound, the GI50 in test [7] was 0.465 µM; in [8], 0.286 µM; in test [9] it was 0.465 µM; in [10], 0.335 µM. Moreover, the TGI in [1] was found to be 2.45 µM; in test [2] it was 1.31 µM; in test [3], 3.73 µM; in [4], 2.87 µM; in test [5], 1.04 µM; in test [6], 2.98 µM. Moreover, the TGI turned out to be 1.73 µM in [7], 0.825 µM in test [8], 1.43 µM in test [9] and 0.805 µM in test [10].

`CCC(=O)OCOc1ccc(/C=C2\CCC(CN(C)C)C2=O)cc1` (stereo not drawn): the TGI in test [1] was 18.5 µM; in test [2], 9.97 µM; in [3], more than 79 µM; in test [4], 25.7 µM; in [5] it was more than 19.9 µM; in test [6], 8.07 µM. For the same compound, the TGI is 15.3 µM in [7], 27.9 µM in [8], 9.73 µM in test [9] and 22.2 µM in [10].

For `Cc1c(C(=O)Nc2ccc(N3C[C@@H](C)O[C@@H](C)C3)nc2)cccc1-c1ccc(OC(F)(F)F)cc1`, the GI50 in [1] was 12.4 µM and 15.5 µM; in test [2], 12.2 µM and 16.9 µM; in [3], 9.09 µM and 14.1 µM; in test [4] it was 11.9 µM and 15.1 µM; in [5], 5.91 µM and 11.8 µM; in test [6] it was 7.59 µM and 8.47 µM. Besides, the GI50 in [7] was 4.28 µM and 11.5 µM; in [8], 13.1 µM and 21.6 µM; in test [9], 12.9 µM and 16.8 µM; in [10], 5.48 µM and 9.98 µM. The TGI in test [1] is 36.1 µM and 42.3 µM; in test [2] it was 38.8 µM and 55.8 µM; in test [3] it was 49.3 µM and 43.8 µM; in test [4], 41.7 µM and 64.4 µM; in test [5], 21.4 µM and 31.3 µM; in test [6] it was more than 100 µM. For the same compound, the TGI in [7] was 21.4 µM and 36.2 µM; in test [8], 44.9 µM and > 100 µM; in test [9], 33.6 µM and 40.1 µM; in test [10] it was 21.2 µM and 30.3 µM.

In the case of `CCOC(=O)C1=C(Nc2ccc(OC)cc2)C(N)=NC1=N`, the GI50 in [1] is 3.94 µM; in test [2], 1.83 µM; in [3], 4.17 µM; in test [4], 2.9 µM; in [5], 4.02 µM; in test [6], 4.38 µM. Besides, the results for the GI50 in test [8], in test [9] and in [10] were 8.03 µM, 6.89 µM and 8.31 µM, respectively. The TGI in test [1], in test [2], in test [3], in test [4], in [5] and in test [6] was more than 100 µM throughout. Further, the TGI in [8], in [9] and in test [10] was more than 100 µM each time.

For the compound `CCOC(=O)N1CCC(N=C2CSc3nnc(-c4cc(C(F)(F)F)cc(C(F)(F)F)c4)n3N2)CC1`, the GI50 in test [1] was 2.25 µM; in test [2] it was 2.29 µM; in [3] it was 2.31 µM; in test [4], 1.97 µM; in test [5], 1.81 µM; in [6], 2.57 µM. In addition, the results for the GI50 in [7], in [8] and in test [9] were 1.86 µM, 2 µM and 1.87 µM, respectively. Further, the TGI in test [1] worked out at 4.78 µM; in [2] it was 5.4 µM; in [3] it was 6.4 µM; in test [4], 3.65 µM; in test [5] it was 3.56 µM; in test [6], 5.31 µM. The TGI in [7] is 5.49 µM; in test [8], 3.6 µM; in [9], 3.75 µM.

Regarding `O=C(Nc1nc2c(C(F)(F)F)cccc2s1)c1cc(Cl)ccc1O`, the GI50 in [1] was 0.451 µM; in [2] it was 0.338 µM; in test [3], 0.268 µM; in [4], 0.44 µM; in test [5], 0.27 µM; in test [6], 0.318 µM. In addition, the GI50 in test [7] is 0.34 µM; in test [9], 0.331 µM; in test [10], 0.365 µM. Also, the TGI in [1] was 14.1 µM; in test [2], 13.2 µM; in test [3] it was 26.3 µM; in [4], 13 µM; in test [5] it was 0.952 µM; in test [6], 1.21 µM. Further, the TGI is more than 100 µM in [7], 8.18 µM in [9] and 10.7 µM in test [10].

Regarding `CC(=O)C(CN1C(=O)c2ccccc2C1=O)C(C)=O`, the TGI in test [1], in test [2], in [3], in [4], in [5] and in [7] was more than 100 µM each time. In addition, the TGI in [8], in test [9] and in test [10] was more than 100 µM each time.

On to `CC12CCC(C1)C(C)(C)C2OC(=O)c1ccccc1N` (stereo not drawn), for which the TGI in test [1] came out at 27.9 µM; in test [2], 33.7 µM; in [3] it was 31.5 µM; in test [4], 29.1 µM; in test [5], 30.2 µM; in [6], 25.1 µM. For the same compound, the TGI in [8] is 29.5 µM; in test [9], 31.9 µM; in test [10] it was 32.8 µM.

Take `[N-]=[N+]=C(C(=O)CN1CCCC1=O)S(=O)(=O)c1ccccc1`: the TGI in [1], in test [2], in test [3], in test [4], in test [5] and in test [6] was more than 100 µM in each case. The TGI in test [8], in test [9] and in test [10] was more than 100 µM each time.

As for `O=C(Nc1cccc([N+](=O)[O-])c1)c1cccc(C(=O)Nc2cccc([N+](=O)[O-])c2)c1`, the GI50 in [1] is more than 100 µM; in test [2], more than 100 µM; in [3] it was 7.5 µM; in test [4], more than 100 µM; in test [5] it was 12.1 µM; in test [6] it was more than 100 µM. The values for the GI50 in test [7], in test [9] and in [10] were more than 100 µM, more than 100 µM and 9.71 µM, respectively. The TGI in [1] is more than 100 µM; in test [2], more than 100 µM; in test [3], more than 30.7 µM; in test [4], more than 100 µM; in test [5], more than 100 µM; in [6], more than 100 µM. The TGI in test [7] is more than 100 µM; in test [9], more than 100 µM; in test [10] it was more than 61.3 µM.
